Results as given in ChEMBL document CHEMBL1201862, “PubChem BioAssay data set” (2004).
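Step 1: Grow cells in 96-well plates. Step 2: Expose to compound for 48 hours at 5 concentrations. Step 3: Interpolate endpoints linearly; if unreached, use highest concentration. Abbreviation: GI50, concentration required for 50% inhibition of growth.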 The source made the active and inactive calls. Rule as the data show it: active = GI50 up to about 1.1 µM and inactive = higher.

Key:
Test in all cases: inhibition of tumour cell growth, NCI panel, 48 h
T47D = tested on: T47D
SF-268 = tested on: SF-268
SK-MEL-28 = tested on: SK-MEL-28
SNB-75 = tested on: SNB-75
SK-MEL-5 = tested on: SK-MEL-5
HL-60 = tested on: HL-60
HOP-62 = tested on: HOP-62
SK-MEL-2 = tested on: SK-MEL-2
OVCAR-8 = tested on: OVCAR-8
MOLT-4 = tested on: MOLT-4
Hs-578T = tested on: Hs-578T
SNB-19 = tested on: SNB-19
UACC-62 = tested on: UACC-62
SK-OV-3 = tested on: SK-OV-3
SN12C = tested on: SN12C
HCC 2998 = tested on: HCC 2998
M14 = tested on: M14
SW-620 = tested on: SW-620
K562 = tested on: K562
HOP-92 = tested on: HOP-92
CAKI-1 = tested on: CAKI-1
DU-145 = tested on: DU-145
LOX IMVI = tested on: LOX IMVI
786-0 = tested on: 786-0
NCI-H522 = tested on: NCI-H522
MDA-MB-435 = tested on: MDA-MB-435
UACC-257 = tested on: UACC-257
OVCAR-5 = tested on: OVCAR-5
MDA-MB-231 = tested on: MDA-MB-231
A549 = tested on: A549
PC-3 = tested on: PC-3
MDA-N = tested on: MDA-N
EKVX = tested on: EKVX
HCT-116 = tested on: HCT-116
SR = tested on: SR
ACHN = tested on: ACHN
Malme-3M = tested on: Malme-3M
NCI/ADR-RES = tested on: NCI/ADR-RES
A498 = tested on: A498
HCT-15 = tested on: HCT-15
SF-539 = tested on: SF-539
KM12 = tested on: KM12
OVCAR-3 = tested on: OVCAR-3
BT-549 = tested on: BT-549
HT-29 = tested on: HT-29
NCI-H226 = tested on: NCI-H226
UO-31 = tested on: UO-31
CCRF-CEM = tested on: CCRF-CEM
NCI-H460 = tested on: NCI-H460
OVCAR-4 = tested on: OVCAR-4
U-251 = tested on: U-251
MCF7 = tested on: MCF7
IGROV-1 = tested on: IGROV-1
TK-10 = tested on: TK-10
RPMI-8226 = tested on: RPMI-8226
RXF 393 = tested on: RXF 393
COLO 205 = tested on: COLO 205
SF-295 = tested on: SF-295
NCI-H23 = tested on: NCI-H23

## Cc1cc(S(=O)(=O)/N=C(\NN)Nc2ccc(Cl)cc2)c(S)cc1Cl
T47D
  GI50: 3.4 µM (inactive)
SF-268
  GI50: 15.6 µM (inactive)
SK-MEL-28
  GI50: 21.6 µM (inactive)
SNB-75
  GI50: 6.49 µM (inactive)
SK-MEL-5
  GI50: 4.94 µM (inactive)
HL-60
  GI50: 6.27 µM (inactive)
HOP-62
  GI50: 10.8 µM (inactive)
SK-MEL-2
  GI50: 19.2 µM (inactive)
OVCAR-8
  GI50: 12.4 µM (inactive)
MOLT-4
  GI50: 2.75 µM (inactive)
Hs-578T
  GI50: 1.17 µM (inactive)
SNB-19
  GI50: 11.5 µM (inactive)
UACC-62
  GI50: 1.5 µM (inactive)
SK-OV-3
  GI50: 23 µM (inactive)
SN12C
  GI50: 22.8 µM (inactive)
HCC 2998
  GI50: 11.2 µM (inactive)
M14
  GI50: 8.65 µM (inactive)
SW-620
  GI50: 11.1 µM (inactive)
K562
  GI50: 2.13 µM (inactive)
HOP-92
  GI50: 34.4 µM (inactive)
CAKI-1
  GI50: 19.9 µM (inactive)
DU-145
  GI50: 4.35 µM (inactive)
LOX IMVI
  GI50: 13.9 µM (inactive)
786-0
  GI50: 6.34 µM (inactive)
NCI-H522
  GI50: 16 µM (inactive)
MDA-MB-435
  GI50: 8.02 µM (inactive)
UACC-257
  GI50: 19.3 µM (inactive)
OVCAR-5
  GI50: 1.81 µM (inactive)
MDA-MB-231
  GI50: 20.4 µM (inactive)
A549
  GI50: 11 µM (inactive)
PC-3
  GI50: 21.2 µM (inactive)
MDA-N
  GI50: 8.87 µM (inactive)
EKVX
  GI50: 5.16 µM (inactive)
HCT-116
  GI50: 3.03 µM (inactive)
SR
  GI50: 3.76 µM (inactive)
ACHN
  GI50: 3.06 µM (inactive)
Malme-3M
  GI50: 16.9 µM (inactive)
NCI/ADR-RES
  GI50: 2.71 µM (inactive)
A498
  GI50: 17.1 µM (inactive)
HCT-15
  GI50: 1.14 µM
SF-539
  GI50: 14.1 µM (inactive)
KM12
  GI50: 2.85 µM (inactive)
OVCAR-3
  GI50: 12.4 µM (inactive)
BT-549
  GI50: 10.8 µM (inactive)
HT-29
  GI50: 16.1 µM (inactive)
NCI-H226
  GI50: 16 µM (inactive)
UO-31
  GI50: 5.58 µM (inactive)
CCRF-CEM
  GI50: 3.28 µM (inactive)
NCI-H460
  GI50: 4.46 µM (inactive)
OVCAR-4
  GI50: 13.2 µM (inactive)
U-251
  GI50: 6.87 µM (inactive)
MCF7
  GI50: 14.8 µM (inactive)
IGROV-1
  GI50: 3.54 µM (inactive)
TK-10
  GI50: 21.3 µM (inactive)
RPMI-8226
  GI50: 12.3 µM (inactive)
RXF 393
  GI50: 28.6 µM (inactive)
COLO 205
  GI50: 13.4 µM (inactive)

## O=C(CC(O)(C(F)(F)F)C(F)(F)F)C(c1ccccc1)C(O)(C(F)(F)F)C(F)(F)F (stereo not drawn)
T47D
  GI50: 13.1 µM (inactive)
SK-MEL-28
  GI50: 25.4 µM (inactive)
SNB-75
  GI50: 1.93 µM (inactive)
SK-MEL-5
  GI50: 18.8 µM (inactive)
HL-60
  GI50: 9.71 µM (inactive)
SK-MEL-2
  GI50: 35.1 µM (inactive)
OVCAR-8
  GI50: 14.8 µM (inactive)
MOLT-4
  GI50: 62.8 µM (inactive)
Hs-578T
  GI50: 4.15 µM (inactive)
SNB-19
  GI50: 18.3 µM (inactive)
UACC-62
  GI50: 20.5 µM (inactive)
SK-OV-3
  GI50: 5.92 µM (inactive)
HCC 2998
  GI50: 9.1 µM (inactive)
M14
  GI50: 41.2 µM (inactive)
SW-620
  GI50: 14.4 µM (inactive)
K562
  GI50: 7.6 µM (inactive)
HOP-92
  GI50: 3.72 µM (inactive)
CAKI-1
  GI50: 10.5 µM (inactive)
DU-145
  GI50: 26.1 µM (inactive)
LOX IMVI
  GI50: 55.7 µM (inactive)
786-0
  GI50: 31.3 µM (inactive)
SF-295
  GI50: 40 µM (inactive)
NCI-H522
  GI50: 38.3 µM (inactive)
NCI-H23
  GI50: 6.47 µM (inactive)
MDA-MB-435
  GI50: 47.3 µM (inactive)
UACC-257
  GI50: 31.8 µM (inactive)
OVCAR-5
  GI50: > 100 µM (inactive)
MDA-MB-231
  GI50: > 100 µM (inactive)
A549
  GI50: 22.2 µM (inactive)
PC-3
  GI50: 4.15 µM (inactive)
MDA-N
  GI50: 78.2 µM (inactive)
EKVX
  GI50: 18.4 µM (inactive)
HCT-116
  GI50: 16.4 µM (inactive)
SR
  GI50: 9.31 µM (inactive)
ACHN
  GI50: 17.4 µM (inactive)
Malme-3M
  GI50: 50.4 µM (inactive)
NCI/ADR-RES
  GI50: 8.87 µM (inactive)
A498
  GI50: 13.9 µM (inactive)
HCT-15
  GI50: 9.53 µM
SF-539
  GI50: 17.1 µM (inactive)
KM12
  GI50: 8.55 µM (inactive)
OVCAR-3
  GI50: 11.5 µM (inactive)
BT-549
  GI50: 24 µM (inactive)
HT-29
  GI50: 15.2 µM (inactive)
NCI-H226
  GI50: 42.8 µM (inactive)
UO-31
  GI50: 10.3 µM (inactive)
CCRF-CEM
  GI50: 5.56 µM (inactive)
NCI-H460
  GI50: 6.08 µM (inactive)
OVCAR-4
  GI50: > 100 µM (inactive)
U-251
  GI50: 5.45 µM (inactive)
MCF7
  GI50: 45.7 µM (inactive)
IGROV-1
  GI50: 5.77 µM (inactive)
TK-10
  GI50: 26.3 µM (inactive)
RPMI-8226
  GI50: 5.33 µM (inactive)
RXF 393
  GI50: 5.14 µM (inactive)
COLO 205
  GI50: 11.4 µM (inactive)
